This note sets out measurements from US8476256B2, “Diazonamide analogs” (Joyant Pharmaceuticals, Inc., priority 2008, dated 2013).

Test [1] has as its system U937 (human leukemic monocyte lymphoma) cell line. Kind of test: Cell viability assay (CELL-TITER-GLO), U937. The class given is cell-based. The settings on record: U-937, U937 cells, 48 hour treatment, 1 nM to 1 μM. How it is done: (§1) Cell viability assays were run using standard protocols known to those of skill in art. Cells were plated in 96 well plates at the density of 3,000-10,000 cells per well. Twenty four hours later, cells were treated with increasing concentration of test compounds (1 nM to 1 μM). After another 48 hour, cell survival was measured using CELL-TITER-GLO® reagent (Promega) following the protocol provided by the manufacture. The IC50 value was determined as the concentration of test compound that kills 50% of the cell population.
(§2) Cell viability data generated according to the protocol described herein was generated for representative compounds in the A2058 (human melanoma) and U937 (human leukemic monocyte lymphoma) cell lines. The compound of Example 16 (“Compound J”) was used as a reference compound.

Test [2] concerns A2058 (human melanoma) cell line. In words: Cell viability assay (CELL-TITER-GLO), A2058. In kind it is cell-based. The note with it: A2058 cells, 48 hour treatment, 1 nM to 1 μM. How it is done: as §1, §2

As usually defined, the IC50 is the concentration that gives 50% inhibition. A high value points to weaker potency in that assay.

Structures are written as SMILES.

As to `CC(C)[C@@H]1NC(=O)C(NC(=O)c2ccc(Br)cc2)Cc2ccc3c(c2)[C@]24C5=C(N=C1O5)c1ncc(o1)-c1c[nH]c5cccc(c15)-c1cccc2c1NC4O3` (stereo partly drawn) [Example 55], the IC50 in test [1] was 0.406 µM; in test [2], 0.613 µM.

With `CC(C)[C@@H]1NC(=O)C(NC(=O)/C=C/C(=O)O)Cc2ccc3c(c2)[C@]24C5=C(N=C1O5)c1ncc(o1)-c1c[nH]c5cccc(c15)-c1cccc2c1NC4O3` (stereo partly drawn) [Example 56], the IC50 in test [1] is 0.756 µM; in test [2], more than 1 µM.

As for `CO[C@@](C(=O)NC1Cc2ccc3c(c2)[C@]24C5=C(N=C(O5)[C@H](C(C)C)NC1=O)c1ncc(o1)-c1c[nH]c5cccc(c15)-c1cccc2c1NC4O3)(c1ccccc1)C(F)(F)F` (stereo partly drawn) [Example 57], the IC50 came to 0.618 µM in test [1] and 0.58 µM in test [2].

`CO[C@](C(=O)NC1Cc2ccc3c(c2)[C@]24C5=C(N=C(O5)[C@H](C(C)C)NC1=O)c1ncc(o1)-c1c[nH]c5cccc(c15)-c1cccc2c1NC4O3)(c1ccccc1)C(F)(F)F` (stereo partly drawn) [Example 58]: the IC50 was 0.821 µM in test [1] and more than 1 µM in test [2].

On to `COc1cc(C(=O)NC2Cc3ccc4c(c3)C35C6=C(N=C(O6)[C@H](C(C)C)NC2=O)c2ncc(o2)-c2c[nH]c6cccc(c26)-c2cccc3c2N[C@H]5O4)cc(OC)c1OC` (stereo partly drawn) [Example 59], for which the figures for the IC50 in test [1] and in test [2] were 0.619 µM and 0.798 µM, respectively.

On to `CC(C)[C@@H]1NC(=O)C(NC(=O)C(C)(C)C)Cc2ccc3c(c2)[C@]24C5=C(N=C1O5)c1ncc(o1)-c1c[nH]c5cccc(c15)-c1cccc2c1NC4O3` (stereo partly drawn) [Example 60], for which the IC50 in test [1] amounted to 0.255 µM; in test [2] it was 0.538 µM.

As to `CCCC(C)C(=O)NC1Cc2ccc3c(c2)[C@]24C5=C(N=C(O5)[C@H](C(C)C)NC1=O)c1ncc(o1)-c1c[nH]c5cccc(c15)-c1cccc2c1NC4O3` (stereo partly drawn) [Example 61], the IC50 in test [1] came to 0.55 µM; in test [2], 0.636 µM.

`CCC(CC)C(=O)NC1Cc2ccc3c(c2)[C@]24C5=C(N=C(O5)[C@H](C(C)C)NC1=O)c1ncc(o1)-c1c[nH]c5cccc(c15)-c1cccc2c1NC4O3` (stereo partly drawn) [Example 62]: the results for the IC50 in test [1] and in test [2] were 0.247 µM and 0.556 µM, respectively.

Turning to `CC(C)[C@@H]1NC(=O)C(NC(=O)c2cccs2)Cc2ccc3c(c2)[C@]24C5=C(N=C1O5)c1ncc(o1)-c1c[nH]c5cccc(c15)-c1cccc2c1NC4O3` (stereo partly drawn) [Example 63], the IC50 in test [1] was found to be 0.206 µM; in test [2] it was 0.488 µM.

For `CC(C)[C@@H]1NC(=O)C(NC(=O)Cc2cccs2)Cc2ccc3c(c2)[C@]24C5=C(N=C1O5)c1ncc(o1)-c1c[nH]c5cccc(c15)-c1cccc2c1NC4O3` (stereo partly drawn) [Example 64], the IC50 in test [1] and in test [2] was more than 1 µM each time.

Regarding `CC(C)[C@@H]1NC(=O)C(NC=O)Cc2ccc3c(c2)C24C5=C(N=C1O5)c1ncc(o1)-c1c[nH]c5cccc(c15)-c1cccc2c1N[C@H]4O3` (stereo partly drawn) [Example 66], the IC50 in test [1] was 0.499 µM; in test [2], 0.766 µM.

As for `CC(C)=CCC/C(C)=C/CNC1Cc2ccc3c(c2)C24C5=C(N=C(O5)[C@H](C(C)C)NC1=O)c1ncc(o1)-c1c[nH]c5cccc(c15)-c1cccc2c1N[C@H]4O3` (stereo partly drawn) [Example 67], the IC50 in test [1] and in test [2] was more than 1 µM throughout.

As for `CC(C)OC(=O)NC1Cc2ccc3c(c2)C24C5=C(N=C(O5)[C@H](C(C)C)NC1=O)c1ncc(o1)-c1c[nH]c5cccc(c15)-c1cccc2c1N[C@H]4O3` (stereo partly drawn) [Example 68], the values for the IC50 in test [1] and in test [2] were 0.214 µM and 0.451 µM, respectively.

As for `CC(C)COC(=O)NC1Cc2ccc3c(c2)[C@]24C5=C(N=C(O5)[C@H](C(C)C)NC1=O)c1ncc(o1)-c1c[nH]c5cccc(c15)-c1cccc2c1NC4O3` (stereo partly drawn) [Example 69], the IC50 in test [1] is 0.272 µM; in test [2] it was 0.541 µM.

With `C#CCOC(=O)NC1Cc2ccc3c(c2)[C@]24C5=C(N=C(O5)[C@H](C(C)C)NC1=O)c1ncc(o1)-c1c[nH]c5cccc(c15)-c1cccc2c1NC4O3` (stereo partly drawn) [Example 70], the figures for the 50% inhibitory concentration (IC50) in test [1] and in test [2] were 0.434 µM and 0.692 µM, respectively.
